Results reported in ChEMBL document CHEMBL1152096 (Bioorg Med Chem Lett, 1992).

Columns and labels:
Cavia porcellus [1] = organism: Cavia porcellus; test: Evaluated for the percent efficacy in guinea pig ileum contraction model; type: functional
Cavia porcellus [2] = organism: Cavia porcellus; test: Evaluated for the muscarinic potency in guinea pig ileum contraction model; type: functional
Rattus norvegicus [3] = organism: Rattus norvegicus; test: Evaluated for the muscarinic potency in depolarizations of rat superior cervical ganglion; type: functional
Rattus norvegicus [4] = organism: Rattus norvegicus; test: Evaluated for the muscarinic potency in rat hippocampal slice preparations; type: functional, Hippocampus
[5] = target: T1, Muscarinic acetylcholine receptor M1 (Rattus norvegicus, UniProt P08482); test: Evaluated for inhibition of binding of [3H]pirenzepine to homogenized rat cerebral cortex membranes; type: cell membranes, Membrane
T1 sequence (P08482 whole entry): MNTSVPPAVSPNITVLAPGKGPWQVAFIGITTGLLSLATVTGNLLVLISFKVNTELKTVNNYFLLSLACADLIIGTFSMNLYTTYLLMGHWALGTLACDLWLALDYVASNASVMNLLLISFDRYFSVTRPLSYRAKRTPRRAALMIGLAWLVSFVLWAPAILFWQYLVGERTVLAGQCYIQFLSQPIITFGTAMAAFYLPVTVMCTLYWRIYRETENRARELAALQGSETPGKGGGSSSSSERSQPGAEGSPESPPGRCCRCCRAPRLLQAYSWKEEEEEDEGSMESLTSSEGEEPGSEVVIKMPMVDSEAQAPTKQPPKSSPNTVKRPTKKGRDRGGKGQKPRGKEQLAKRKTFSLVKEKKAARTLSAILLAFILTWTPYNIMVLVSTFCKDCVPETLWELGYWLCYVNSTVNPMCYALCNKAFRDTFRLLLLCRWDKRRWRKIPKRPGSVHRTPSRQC

Rattus norvegicus [6] = organism: Rattus norvegicus; test: Evaluated for the muscarinic potency in rat superior cervical ganglion; type: functional
Rattus norvegicus [7] = organism: Rattus norvegicus; test: Evaluated for the percentage efficacy in rat superior cervical ganglion; type: functional
Rattus norvegicus [8] = organism: Rattus norvegicus; test: Evaluated for the percentage efficacy in rat hippocampal slice preparations; type: functional, Hippocampus
Rattus norvegicus [9] = organism: Rattus norvegicus; test: Evaluated for the percentage efficacy in depolarizations of rat superior cervical ganglion; type: functional

In the case of `COC(=O)[C@H]1C[C@@H]2CN[C@H]1C2`, the Efficacy (Cavia porcellus [1]) is reported as 94%, the pD2 (Cavia porcellus [2]) is reported as 5.2 and the Efficacy (Rattus norvegicus [3]) is reported as 47%. For the same compound, the pD2 (Rattus norvegicus [3]) was 5.2, the pD2 (Rattus norvegicus [4]) was under 4 and the IC50 [5] was 2570 nM.

With `COC(=O)[C@H]1C[C@H]2C[C@@H]1N(C)C2` the Efficacy (Cavia porcellus [1]) was 68%, the pD2 (Cavia porcellus [2]) was 4.9 and the pD2 (Rattus norvegicus [6]) was 5.9. For the same compound, the Efficacy (Rattus norvegicus [7]) was 71%, the pD2 (Rattus norvegicus [4]) was under 4 and the IC50 [5] was 1910 nM.

Work on `COC(=O)[C@@H]1C[C@@H]2C[C@H]1N(C)C2` yielded a pD2 (Cavia porcellus [2]) of under 4, an Efficacy (Rattus norvegicus [3]) of 70% and a pD2 (Rattus norvegicus [3]) of 4.4. For the same compound, the pD2 (Rattus norvegicus [4]) was 5.9, the IC50 [5] was 3890 nM and the Efficacy (Rattus norvegicus [8]) was 33%.

`COC(=O)[C@@H]1C[C@H]2CN[C@@H]1C2` showed an Efficacy (Cavia porcellus [1]) of 120%, a pD2 (Cavia porcellus [2]) of 6 and an Efficacy (Rattus norvegicus [3]) of 90%. It also gave a pD2 (Rattus norvegicus [3]) of 6.7, a pD2 (Rattus norvegicus [4]) of 6 and an IC50 [5] of 1410 nM. For the same compound, the Efficacy (Rattus norvegicus [8]) was 120%.

With `COC(=O)C1CC2CNC1C2` (racemic) the Efficacy (Cavia porcellus [1]) was 91%, the pD2 (Cavia porcellus [2]) was 6.2 and the Efficacy (Rattus norvegicus [3]) was 57%. It also gave a pD2 (Rattus norvegicus [3]) of 6.3, a pD2 (Rattus norvegicus [4]) of 5.5 and an IC50 [5] of 1950 nM. For the same compound, the Efficacy (Rattus norvegicus [8]) was 103%.

`COC(=O)C1CC2CC1N(C)C2` (racemic) was tested, and the Efficacy (Cavia porcellus [1]) was 58%, the pD2 (Cavia porcellus [2]) was 4.2 and the Efficacy (Rattus norvegicus [3]) was 82%. For the same compound, the pD2 (Rattus norvegicus [3]) was 5, the pD2 (Rattus norvegicus [4]) was 5.4 and the IC50 [5] was 2820 nM. It also gave an Efficacy (Rattus norvegicus [8]) of 39%.

`COC(=O)C1=CCCN(C)C1` [ARECOLINE] gave an Efficacy (Cavia porcellus [1]) of 100%, a pD2 (Cavia porcellus [2]) of 6.5 and an Efficacy (Rattus norvegicus [9]) of 80%. The pD2 (Rattus norvegicus [3]) was 6.6, the pD2 (Rattus norvegicus [4]) was 6.1 and the Efficacy (Rattus norvegicus [8]) was 100%.
